# In patent US6011070A, “Slow-onset, long-lasting dopamine reuptake blockers” (priority 1997, dated 2000):
# pIC50: −log10 of the molar value. Like-named read-outs stand apart in the source and are kept apart here.
# Legend:
# male Swiss-Webster mice = experiment: Dose response study of induced locomotor stimulation (Digiscan), 1 h session (Example 2); type: in vivo, Swiss-Webster mice (Hsd:ND4); details: IP, locomotor activity
# Method: A dose response study of induced locomotor stimulation was conducted according to the following procedure. The study was conducted using a 16 or 32 Digiscan locomotor activity testing chambers (40.5×40.5×30.5 cm) housed in sets of two, within sound-attenuating chambers. A panel of infrared beams (16 beams) and corresponding photodetectors were located in the horizontal direction along the sides of each activity chamber. A 15-W incandescent light above each chamber provided dim illumination. Fans provided an 80-dB ambient noise level within the chamber. Separate groups of 8 non-habituated male Swiss-Webster mice (Hsd:ND4, aged 2-3 months) were injected via the intraperitoneal (IP) route with either vehicle (deionized water for Compounds 1-4, carboxymethylcellulose for Compound 6 or methyl cellulose for Compound 7)) or test compound (1, 2.5, 5, 10, 25 or 50 mg/kg for Compound 3; 1, 3, 10 and 30 mg/kg for Compounds 1, 2 and 4; 3, 10, 30 or 100 mg/kg for Compound 6; and 1, 3, 10, 30 and 100 mg/kg for Compound 7). Compounds 1-4 were injected immediately prior to locomotor activity testing. […] In all studies, horizontal activity (interruption of photocell beams) was measured for 1 hour within 10 minute periods. Testing was conducted with one mouse per activity chamber.
# FIGS. 1, 3, 5 and 7 show average horizontal activity counts/10 minutes as a function of time, immediately following injection of Compound 1, Compound 2, Compound 3 and Compound 4, respectively. FIGS. 13 and 15 show average horizontal activity counts/10 minutes as a function of time, beginning twenty minutes following injection of Compound 6 and Compound 7, respectively. The period 30-60 minutes was selected for analysis of dose-response data. Using TableCurve 2D v2.03 software (Jandel Scientific), the mean average horizontal activity counts/10 minutes for this period were fit to a 3-parameter logistic peak function of log10 dose (with the constant set to 1989, the mean of the vehicle-treated group), and the maximum effect estimated from the resulting curve. […] FIGS. 2, 4, 6, 8, 14 and 16 show average horizontal activity counts/10 minutes over 30 minutes versus the amount administered of Compound 1, Compound 2, Compound 3, Compound 4, Compound 6 and Compound 7, respectively.
# dopamine transporter [1] = molecular target: T1, dopamine transporter (Rattus norvegicus, UniProt P23977); experiment: Inhibition of binding of dopamine to the dopamine transporter (Example 4)
# T1 construct: from tissue
# T1 sequence (P23977 whole entry): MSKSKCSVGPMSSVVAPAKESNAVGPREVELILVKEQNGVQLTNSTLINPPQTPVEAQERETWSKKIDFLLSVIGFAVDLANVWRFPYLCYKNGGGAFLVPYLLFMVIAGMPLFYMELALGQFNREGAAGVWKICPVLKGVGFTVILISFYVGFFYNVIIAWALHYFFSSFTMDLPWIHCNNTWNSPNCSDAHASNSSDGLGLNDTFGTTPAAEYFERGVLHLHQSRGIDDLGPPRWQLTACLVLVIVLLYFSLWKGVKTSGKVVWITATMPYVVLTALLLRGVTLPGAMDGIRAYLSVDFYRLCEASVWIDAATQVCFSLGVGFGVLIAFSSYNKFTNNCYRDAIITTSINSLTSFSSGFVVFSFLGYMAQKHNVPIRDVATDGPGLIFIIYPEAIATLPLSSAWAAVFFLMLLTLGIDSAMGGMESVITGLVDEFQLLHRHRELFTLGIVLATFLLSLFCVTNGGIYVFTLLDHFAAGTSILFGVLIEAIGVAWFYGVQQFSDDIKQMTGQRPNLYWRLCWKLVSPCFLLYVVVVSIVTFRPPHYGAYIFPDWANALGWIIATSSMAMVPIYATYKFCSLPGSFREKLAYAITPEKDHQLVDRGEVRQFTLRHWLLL
# dopamine transporter [2] = molecular target: T1, dopamine transporter; experiment: Inhibition of dopamine reuptake (Example 4); type: biochemical
# squirrel monkeys [3] = experiment: Locomotor response in primates (Example 5); type: in vivo
# Method: Compound 1 was tested for its ability to induce a locomotor response in primates according to procedures disclosed in Rosenzweig-Lipson et al., Psychopharmacology 107:186 (1992). Three squirrel monkeys were administered 1.0 mg/kg of Compound 1. […] The results for each monkey are shown below in Table III and is presented as the responses per second on each day of the test. Controls were established by testing each monkey prior to administering Compound 1.
# monkeys = experiment: Previous evaluation, Task I: Drug Discrimination; type: in vivo
# From the text: It is of interest to compare the results of the present study with the results of our previous evaluation of Compound 1 in Task I: Drug Discrimination. […] Higher doses of Compound 1 were not examined in the present study.
# male rhesus monkeys = details: for Rates of cocaine self-administration, % of control levels: 30 min pretreatment
# squirrel monkeys [4] = experiment: Locomotor response in primates (Example 5); type: in vivo; remark: listed apart in the source
compound,measurement,setting,value
"CN(C)C1CC(c2ccc(Cl)c(Cl)c2)c2ccccc21 (stereo not shown) [Compound 1, N,N-dimethyl-3-(3',4'-dichlorophenyl)-1-indanamine]",Maximal Effect Relative to Cocaine,male Swiss-Webster mice,0.82
same,ED50,"male Swiss-Webster mice; Mus musculus, 30-60 min period, read-out: ED50 (dose producing 1/2 maximal stimulant activity)",4.88 mg/kg
same,pIC50,dopamine transporter [1],7.33
same,Uptake/Binding,dopamine transporter [2]; ratio of IC50 values,1.19
same,pIC50,"dopamine transporter [2]; read-out: DA Uptake, inhibition of dopamine reuptake IC50",7.25
same,Time of peak of locomotor response,squirrel monkeys [3]; 1.0 mg/kg Compound 1,three
same,Number of Responses/Second,"squirrel monkeys [3]; 1.0 mg/kg Compound 1, Day 1, Monkey 6 (control 0.93)",1.01 responses/second
same,Number of Responses/Second,"squirrel monkeys [3]; 1.0 mg/kg Compound 1, Day 2, Monkey 4 (control 1.15)",1.72 responses/second
same,Number of Responses/Second,"squirrel monkeys [3]; 1.0 mg/kg Compound 1, Day 4, Monkey 4 (control 1.15)",1.06 responses/second
same,Number of Responses/Second,"squirrel monkeys [3]; 1.0 mg/kg Compound 1, Day 4, Monkey 5 (control 0.51)",1.01 responses/second
same,Number of Responses/Second,"squirrel monkeys [3]; 1.0 mg/kg Compound 1, Day 5, Monkey 4 (control 1.15)",1.05 responses/second
same,Effect on response rates,"monkeys; Compound 1, 3.2 mg/kg","little effect on response rates in two monkeys, increased response rates in one monkey, and eliminated responding in only one monkey"
same,"Effect on responding, feeding and behavior","monkeys; Compound 1, 10 mg/kg, one monkey","eliminated operant responding, decreased free feeding and produced overt behavioral effects including hyperactivity and agitation for several days"
same,Effect on response rates,"monkeys; Compound 1, doses up to 1.0 mg/kg",little or no effect on response rates
same,"Rates of cocaine self-administration, % of control levels",male rhesus monkeys; 3.2 mg/kg Compound 1 i.m.,approximately 25 % of control levels
same,Rates of cocaine self-administration and food-maintained responding across cocaine unit doses,"male rhesus monkeys; 3.2 mg/kg Compound 1 i.m., all three monkeys",decreased rates of cocaine self-administration across a wide range of cocaine unit doses while producing relatively minor effects on food-maintained responding
same,Rates of food-maintained responding,"male rhesus monkeys; 3.2 mg/kg Compound 1 i.m., monkey 89B056",usually unaffected
same,Rates of food-maintained responding,"male rhesus monkeys; 3.2 mg/kg Compound 1 i.m., monkey J3A",small and inconsistent changes
same,Cocaine unit doses at which self-administration rates were decreased,"male rhesus monkeys; 3.2 mg/kg Compound 1 i.m., monkey WH8",0.001-0.01 mg/kg/inj
same,"Rates of food-maintained responding, % of control levels","male rhesus monkeys; 3.2 mg/kg Compound 1 i.m., monkey WH8, first food component",approximately 30 % of control levels
same,Rates of food-maintained responding,"male rhesus monkeys; 3.2 mg/kg Compound 1 i.m., monkey WH8, second food component",unaffected
same,Range of cocaine doses across which self-administration was decreased,"male rhesus monkeys; 3.2 mg/kg Compound 1 i.m., three monkeys",one to two
same,"Rates of cocaine self-administration, % of control levels",male rhesus monkeys; 0.1-1.0 mg/kg Compound 1 i.m.,50-75 % of control levels
same,Overt behavioral effects,"male rhesus monkeys; Compound 1, 0.1-3.2 mg/kg i.m., prior to or during test session",did not produce noticeable overt behavioral effects
same,Onset of locomotor response,"squirrel monkeys [4]; 1.0 mg/kg Compound 1, 25 minute intervals",slow onset locomotor response
same,Number of Responses/Second,"squirrel monkeys [4]; 1.0 mg/kg Compound 1, Day 1, Monkey 4 (control 1.15)",1.63 responses/second
same,Number of Responses/Second,"squirrel monkeys [4]; 1.0 mg/kg Compound 1, Day 1, Monkey 5 (control 0.51)",0.76 responses/second
same,Number of Responses/Second,"squirrel monkeys [4]; 1.0 mg/kg Compound 1, Day 2, Monkey 5 (control 0.51)",1.50 responses/second
same,Number of Responses/Second,"squirrel monkeys [4]; 1.0 mg/kg Compound 1, Day 2, Monkey 6 (control 0.93)",1.31 responses/second
same,Number of Responses/Second,"squirrel monkeys [4]; 1.0 mg/kg Compound 1, Day 3, Monkey 4 (control 1.15)",1.92 responses/second
same,Number of Responses/Second,"squirrel monkeys [4]; 1.0 mg/kg Compound 1, Day 3, Monkey 5 (control 0.51)",1.51 responses/second
same,Number of Responses/Second,"squirrel monkeys [4]; 1.0 mg/kg Compound 1, Day 3, Monkey 6 (control 0.93)",1.40 responses/second
same,Number of Responses/Second,"squirrel monkeys [4]; 1.0 mg/kg Compound 1, Day 4, Monkey 6 (control 0.93)",1.16 responses/second
same,Number of Responses/Second,"squirrel monkeys [4]; 1.0 mg/kg Compound 1, Day 5, Monkey 5 (control 0.51)",0.82 responses/second
same,Number of Responses/Second,"squirrel monkeys [4]; 1.0 mg/kg Compound 1, Day 5, Monkey 6 (control 0.93)",1.14 responses/second
same,Number of Responses/Second,"squirrel monkeys [4]; 1.0 mg/kg Compound 1, Day 6, Monkey 5 (control 0.51)",0.62 responses/second
same,Number of Responses/Second,"squirrel monkeys [4]; 1.0 mg/kg Compound 1, Day 7, Monkey 5 (control 0.51)",0.60 responses/second
